The term Cmax denotes the peak of the concentration-time curve. As usually defined, the Tmax is the time at which the peak concentration occurs.

Consider 4 compounds from patent US20080312309A1, “CONTROLLED RELEASE ORAL FORMULATIONS OF ION CHANNEL MODULATING COMPOUNDS AND RELATED METHODS FOR PREVENTING ARRHYTHMIA” (priority 2007, published 2008).

The data set can be described thus: Disposition and mass balance of 14C-vernakalant hydrochloride after single IV and oral doses in CYP2D6 EMs and PMs. The conditions noted are these: for AUC0-∞ / Cmax / Tmax / t1/2: plasma, single 240-mg dose. The class given is in vivo, human. The source says: This phase 1 study used an open-label, single-sequence, crossover design. […] The specific activity of the administered dose was 0.329 μCi/mg, yielding a total radioactive dose of 78.96 μCi. Participants remained confined to the center for 7 days after drug administration to ensure collection of urine and fecal samples for recovery of radioactivity. After an additional 2-week follow-up as outpatients, the cohort returned to the center 3 weeks after each dose (i.e., days 21 and 42) for end-of-study assessments.
Additional samples were obtained 5 minutes into the IV infusion and at its end.
Urine and fecal specimens were also collected at the end-of-study assessment. Saliva for ^14C analysis was obtained before dosing, 0.25, 0.5, 2, and 8 hours afterward, and on occurrence of any treatment-related adverse event related to dysgeusia. Vomitus for ^14C analysis was collected at any time over the 7 days after oral administration when vomiting occurred.
Adverse events were evaluated daily, classified by intensity and association with treatment, and coded according to the MedDRA dictionary version 6.1. Vital signs, physical examination, 12-lead electrocardiograph (ECG), and laboratory tests including clinical chemistry, hematology, and urinalysis were evaluated at screening, 7 days after dosing, and at the end-of-study assessment. […] In addition, vital signs and 12-lead ECG were obtained 15 minutes before dosing; the vital signs assessment was repeated 15, 30, 60, and 90 minutes after dosing and then daily for 7 days.
Plasma samples first underwent solid-phase extraction on SPE cartridges containing a 30-mg MCX phase (Waters, Milford, Mass.); urine samples were analyzed directly. For the determination of glucuronide and sulphate conjugates, plasma and urine samples underwent an enzymatic deconjugation with a solution of β-glucuronidase (5000 units/mL in 0.1 M sodium acetate buffer pH 5.0) and were incubated for 30 hours (plasma) or 20 hours (urine) at 37° C. Subsequently, the urine samples were injected directly on to the column and the plasma samples were further treated with SPE as described above. […] The other part of the LC column effluent was directed to model API 3000 MS (MDX Sciex, Concord, Canada) with ionspray detection for structural confirmation and identification.
Pharmacokinetic values were analyzed using noncompartmental analysis by means of WinNonlin version 5.0 (Pharsight Corp, Mountain View, Calif.). […] Oral bioavailability (F) was determined from the ratio of AUC0-∞ after oral dosing to AUC0-∞ after IV dosing, and was used to calculate the oral clearance (CL/F), Vdz after oral dosing (Vdz/F), and Vss after oral dosing (Vss/F).
The amount of these analytes excreted in urine was calculated according to time period and cumulatively over the 7 days. Total ^14C in urine and feces (and vomitus, if applicable) was also determined by time and cumulatively over the study for the mass-balance estimation.
Concentrations below the lower limit of quantitation were set to 0. […] Safety parameters were summarized descriptively for the entire cohort.

Setting [1] is: IV infusion of 14C-vernakalant, EMs (n = 5).
The mark [2] stands for this setting: IV infusion of 14C-vernakalant, PMs (n = 2).
The mark [3] stands for this setting: oral administration of 14C-vernakalant, EMs (n = 5).
The mark [4] stands for this setting: oral administration of 14C-vernakalant, PMs (n = 2).
[5] abbreviates: IV infusion, EMs (n = 5), listed as Compound 2G.
[6] abbreviates: oral administration, EMs (n = 5).
[7] abbreviates: oral administration, PMs (n = 2).

Marks after values point to notes of the source that are not given here.

Take `COc1cc(CCO[C@@H]2CCCC[C@H]2N2CC[C@@H](O)C2)ccc1OC1OC(C(=O)O)C(O)C(O)C1O` (stereo partly drawn) [Compound 2 glucuronide]: the “Cumulative Amount Excreted in Urine During the 7 Days After Administration” value (“Cumulative Amount Excreted” for short) under setting [1] was 120.01 ± 19.03 mg, the “Cumulative Amount Excreted” value under setting [2] was 11.36 ± 5.52 mg, the “Cumulative Amount Excreted” value under setting [3] is 121.76 ± 44.38 mg and the “Cumulative Amount Excreted” value under setting [4] was determined as 12.03 ± 0.51 mg. For the setting “plasma metabolite”, the “mean AUC0-∞, times higher in EMs than in PMs” value is recorded as 10 times. Moreover, the “AUC0-∞” value (IV infusion, EMs (n = 5)) was 20,711 ± 2708 ng · h/mL; the “AUC0-∞” value (IV infusion, PMs (n = 2)) was 1933 ± 360.0 ng·h/mL; the “AUC0-∞” value under setting [6] was 21,182 ± 3137 ng · h/mL; the “AUC0-∞” value under setting [7] amounted to 2025 ± 65.9 ng·h/mL. The Cmax reads like this: (IV infusion, EMs (n = 5)) 3489 ± 371.4 ng/mL; (IV infusion, PMs (n = 2)) 180.5 ± 48.8 ng/mL; under setting [6], 3824 ± 349.3 ng/mL; under setting [7], 230.5 ± 4.99 ng/mL. Moreover, the Tmax is, setting by setting: (IV infusion, EMs (n = 5)) 1.44 ± 0.69 h; under setting [5], 1.4 h; (IV infusion, PMs (n = 2)) 2.17 ± 0.0 h; under setting [6], 2.4 h; under setting [7], 2.00 ± 0.0 h. For the same compound, the t1/2 was 3.29 ± 0.21 h (IV infusion, EMs (n = 5)); 3.3 h under setting [5]; 5.59 ± 0.73 h (IV infusion, PMs (n = 2)); 3.2 h under setting [6]; 5.01 ± 0.49 h under setting [7].

Turning to `COc1cc(CCO[C@@H]2CCCC[C@H]2N2CC[C@@H](O)C2)ccc1O` [Compound 2], the “Cumulative Amount Excreted” value by setting is: under setting [1], 3.11 ± 0.85 mg; under setting [2], 0.48 ± 0.02 mg; under setting [3], 3.88 ± 1.14 mg; under setting [4], 0.62 ± 0.19 mg. In addition, the “AUC0-∞” value reads like this: (IV infusion, EMs (n = 5)) 202.5 ± 66.6 ng·h/mL; under setting [6], 225.2 ± 76.8 ng·h/mL. Moreover, the Cmax is 68.6 ± 18.0 ng/mL (IV infusion, EMs (n = 5)); 3.31 ± 4.67 ng/mL (IV infusion, PMs (n = 2)); 63.2 ± 21.9 ng/mL under setting [6]; 6.25 ± 8.84 ng/mL under setting [7]. For the same compound, the t1/2 (IV infusion, EMs (n = 5)) was found to be 2.28 ± 0.29 h and the t1/2 under setting [6] was found to be 2.19 ± 0.29 h.

As to `COc1ccc(CCO[C@@H]2CCCC[C@H]2N2CC[C@@H](O)C2)cc1O` [Compound 3], the “Cumulative Amount Excreted” value reads like this: under setting [1], 0.04 ± 0.02 mg; under setting [2], 0.16 ± 0.12 mg; under setting [3], 0.05 ± 0.03 mg; under setting [4], 0.12 ± 0.05 mg. Moreover, the detectability in plasma entry (after vernakalant hydrochloride dosing) is “not detectable in plasma at most time points”. Moreover, the highest concentration (Cmax) by setting is: (IV infusion, EMs (n = 5)) 2.85 ± 3.94 ng/mL; (IV infusion, PMs (n = 2)) 3.72 ± 5.26 ng/mL; under setting [6], 1.41 ± 3.16 ng/mL; under setting [7], 9.08 ± 2.16 ng/mL. For the same compound, the Tmax is, setting by setting: (IV infusion, EMs (n = 5)) 0.34 ± 0.12 h; (IV infusion, PMs (n = 2)) 0.42^† h; under setting [6], 0.77^† h; under setting [7], 1.25 ± 1.06 h.

In the case of `COc1ccc(CCO[C@@H]2CCCC[C@H]2N2CC[C@@H](O[C@@H]3O[C@H](C(=O)O)[C@@H](O)[C@H](O)[C@H]3O)C2)cc1OC` [Vernakalant glucuronide], the “Cumulative Amount Excreted” value runs as follows: under setting [1], 8.91 ± 2.86 mg; under setting [2], 44.22 ± 15.10 mg; under setting [3], 11.31 ± 6.48 mg; under setting [4], 50.20 ± 14.99 mg. Also, the “AUC0-∞, times higher in PMs than EMs” value (plasma metabolite) is “approximately 4 times”. For the same compound, the “AUC0-∞” value stood at 1791 ± 764.1 ng·h/mL (IV infusion, EMs (n = 5)); 8074 ± 118.6 ng·h/mL (IV infusion, PMs (n = 2)); 2076 ± 809.3 ng·h/mL under setting [6]; 7759 ± 1252 ng·h/mL under setting [7]. Further, the Cmax is recorded as 455.6 ± 118.9 ng/mL (IV infusion, EMs (n = 5)); 942.0 ± 213.5 ng/mL (IV infusion, PMs (n = 2)); 496.0 ± 158.5 ng/mL under setting [6]; 1078 ± 297.7 ng/mL under setting [7]. In addition, the Tmax (IV infusion, EMs (n = 5)) worked out at 0.48 ± 0.13 h; the Tmax (IV infusion, PMs (n = 2)) is reported as 1.67 ± 0.71 h; the Tmax under setting [6] was determined as 1.80 ± 0.45 h; the Tmax under setting [7] was 1.38 ± 0.88 h. Also, the t1/2 (IV infusion, EMs (n = 5)) is recorded as 2.76 ± 0.65 h; the t1/2 (IV infusion, PMs (n = 2)) is reported as 6.58 ± 2.59 h; the t1/2 under setting [6] is 2.57 ± 0.41 h; the t1/2 under setting [7] came out at 4.32 ± 0.27 h.
